Measured values as given in PubChem BioAssay AID1996.
≈ marks a conversion by molar mass, not a printed value.

conditions: buffer; pH 7.4; 200.0 µM

`COc1ccc(C(CCNCc2ccc(OC(C)C)cc2)C(C)C)cc1` (centres undefined) and `COc1ccc(CNC(=O)c2sccc2C)cc1` cannot be ordered by solubility kinetic: 49.4 µg/mL (≈ 139 µM) for the first, over 39.2 µg/mL for the second.

`COc1ccccc1CNC(=O)CCNC(=O)c1ccco1` and `COc1ccccc1CNC(=O)C1CCC(=O)N1C(C)C` (centres undefined) cannot be ordered by solubility kinetic: over 45.3 µg/mL for the first, over 43.6 µg/mL for the second.

Going from `CC(C)c1ccc(NC2CCCN(C(=O)c3ccoc3)C2)cc1` (centres undefined) to `CCN1CCN(c2ccc(NC(=O)COc3ccc(Cl)cc3C)cc2)CC1`, the solubility kinetic falls from over 46.9 µg/mL to 5.1 µg/mL (≈ 13.1 µM).

Going from `CCCCn1c(=O)[nH]c2nc3cc(NC(C)=O)ccc3nc2c1=O` to `C=CCn1c(=O)c(C(=O)Nc2ccc(C)cc2)c(O)c2ccccc21`, the solubility kinetic falls from 2.3 µg/mL (≈ 7.03 µM) to under 0.4 µg/mL.

`O=C1CN(C(=O)COC(=O)CCc2ccccc2O)c2ccccc2N1` and `O=C(CCN1C(=O)c2ccccc2C1=O)NCc1ccccc1` cannot be ordered by solubility kinetic: over 53.2 µg/mL for the first, over 46.3 µg/mL for the second.

Compared with `CCOc1ccccc1NC(=O)Nc1ccncc1`, `COc1ccccc1NC(=O)COC(=O)c1ccc2ccccc2n1` is 2.8-fold lower in solubility kinetic: 36.3 µg/mL (≈ 141 µM) for the first, 13.1 µg/mL (≈ 38.9 µM) for the second.

Compared with `COC(=O)c1cc(S(=O)(=O)N(C)C2CCCCC2)oc1C`, `Cc1cc(=O)[nH]c(SCC(=O)NCC2CCCCC2)c1C#N` is higher in solubility kinetic: 37.5 µg/mL (≈ 119 µM) for the first, over 47.9 µg/mL for the second.

`O=C(Nc1ccccc1)OC1CCCCc2cccnc21` (centres undefined) and `COc1ccccc1NC(=O)CN1CCN(c2ccccc2)CC1` are within 1.5-fold of each other in solubility kinetic: 41.6 µg/mL (≈ 147 µM) for the first, 35.3 µg/mL (≈ 108 µM) for the second.

`CCc1nc(SCc2ccccn2)[nH]c(=O)c1C` and `Cc1cc(=O)[nH]c(SCC(=O)N2CCN(C(=O)c3ccco3)CC2)n1` cannot be ordered by solubility kinetic: over 39.2 µg/mL for the first, over 54.4 µg/mL for the second.

Going from `Cc1ccc(-c2c(NC(=O)C(C)C)n(C)c3ccccc3c2=O)cc1` to `Cc1ccccc1NC(=O)CN1C(=O)c2ccccc2C1=O`, the solubility kinetic falls from 29.4 µg/mL (≈ 87.9 µM) to 8.5 µg/mL (≈ 28.9 µM) (3.5-fold).

Going from `COC(=O)c1cnc(Nc2ccc(Cl)cc2)c([N+](=O)[O-])c1` to `CCOC(=O)c1csc(-c2ccc([N+](=O)[O-])cc2)n1`, the solubility kinetic rises from under 0.2 µg/mL to 5.6 µg/mL (≈ 20.1 µM).

`Cc1cccc(Nc2nc(-c3ccc(O)cc3O)cs2)n1` and `COc1ccc(-c2csc(-c3ccccc3)n2)c(OC)c1` are within 1.5-fold of each other in solubility kinetic: 4.7 µg/mL (≈ 15.7 µM) for the first, 3.3 µg/mL (≈ 11.1 µM) for the second.

`CCC1(c2ccc(F)cc2)NC(=O)N(CC(=O)N2CCN(C(=O)c3ccco3)CC2)C1=O` (centres undefined) and `O=C(CN1CCN(Cc2ccc(F)cc2)CC1)NCc1ccccc1` cannot be ordered by solubility kinetic: over 66.4 µg/mL for the first, over 51.2 µg/mL for the second.

Compared with `CNc1ccc(Cl)nn1`, `C/C(=N\O)c1ccc(Cl)c(Cl)c1` is lower in solubility kinetic: over 21.5 µg/mL for the first, 11.9 µg/mL (≈ 58.3 µM) for the second.

`CC(=O)NC(CC(=O)Nc1nc(C)cs1)c1ccccc1` (centres undefined) and `CC(=O)N/C(=C\c1ccccc1)C(=O)OCC(=O)Nc1ccc(C)c(S(=O)(=O)N(C)C)c1` cannot be ordered by solubility kinetic: over 45.5 µg/mL for the first, 56.9 µg/mL (≈ 124 µM) for the second.

`CCS(=O)(=O)NCCNc1ccc([N+](=O)[O-])cc1` and `Cl.N=c1ccn(Cc2ccc([N+](=O)[O-])cc2)cc1` cannot be ordered by solubility kinetic: over 41 µg/mL for the first, over 39.9 µg/mL for the second.

First: Brc1ccc(OCc2nc3ccccc3[nH]2)cc1
Second: Nc1nc2ccccc2n1CCOc1ccc(Br)cc1
The solubility kinetic of the first is 11-fold lower: 2.4 µg/mL (≈ 7.92 µM) for the first, 27.2 µg/mL (≈ 81.9 µM) for the second.

Going from `Cc1cc(C(=O)OCC(=O)NCCN2C(=O)CSC2=O)ccc1[N+](=O)[O-]` to `Cc1ccc(C(=O)NCC(=O)OCC(=O)NCC(F)(F)F)cc1`, the solubility kinetic falls from over 57.2 µg/mL to 47.1 µg/mL (≈ 142 µM).

`COc1ccc2c(CC(=O)OCc3nc4ccsc4c(=O)[nH]3)coc2c1` and `COc1ccc(-c2noc(CN(C)C(=O)c3ccoc3C)n2)cc1` are within 1.5-fold of each other in solubility kinetic: 32.2 µg/mL (≈ 86.9 µM) for the first, 40.6 µg/mL (≈ 124 µM) for the second.

`O=C(/C=C\c1ccccc1)Nc1ccc(NC(=O)c2ccco2)cc1` and `Cc1cccc(OCc2cc(-c3ccccc3)no2)c1C` cannot be ordered by solubility kinetic: under 0.4 µg/mL for the first, under 0.6 µg/mL for the second.

Going from `CCOC(=O)C1CCN(c2ncnc3cc(OC)c(OC)cc23)CC1` to `CCOC(=O)C1CCN(C(=O)COC(=O)CSc2ccccc2C)CC1`, the solubility kinetic rises from 51.3 µg/mL (≈ 149 µM) to over 56.9 µg/mL.

`Nc1ncnc2c1ncn2C1OC(CO)C(O)C1O` (centres undefined) and `O=C(O)CSc1ncnc2sc3c(c12)CCCC3` cannot be ordered by solubility kinetic: over 40.1 µg/mL for the first, over 42.1 µg/mL for the second.

First: CCOC(=O)c1c(N)sc2c1CCCC2=O
Second: CCOC(=O)c1c(S(=O)(=O)N2CCCC2)c(C)n(C)c1C
The solubility kinetic of the first is lower: 34.7 µg/mL (≈ 145 µM) for the first, over 47.2 µg/mL for the second.

Compared with `COc1ccccc1NC(=S)N1CC(C)(C)C1=O`, `COc1ccccc1OCc1ccc(C(=O)N2CCCCC2)o1` is higher in solubility kinetic: 3 µg/mL (≈ 11.3 µM) for the first, over 47.3 µg/mL for the second.

`O=S(=O)(c1ccc(=S)[nH]c1)N1CCN(Cc2ccccc2)CC1` and `CCNC(=O)C1CCCN1S(=O)(=O)c1ccc2ccccc2c1` (centres undefined) cannot be ordered by solubility kinetic: over 52.4 µg/mL for the first, over 49.9 µg/mL for the second.

Compared with `CCOC(=O)CN1C(=O)C(=O)N(Cc2c(F)cccc2Cl)C1=O`, `Cc1noc(C)c1COC(=O)/C=C/c1ccccc1Cl` is 6.7-fold lower in solubility kinetic: 45.6 µg/mL (≈ 133 µM) for the first, 6.8 µg/mL (≈ 23.3 µM) for the second.

`CC(C)(C)c1ccc(C(=O)N2CCCC2)s1` and `O=C(c1ccc(F)cc1Cl)N1CCC2(CC1)OCCO2` cannot be ordered by solubility kinetic: over 35.6 µg/mL for the first, over 45 µg/mL for the second.

First: C=CCn1c(SCC(=O)N2CCOCC2)nc2sc(CC)cc2c1=O
Second: Cc1ccc(C)c(NC(=O)Cc2nc(CNCC(C)C)cs2)c1
The solubility kinetic of the first is higher: over 56.9 µg/mL for the first, 47.1 µg/mL (≈ 142 µM) for the second.

`O=C(COC(=O)c1ccncc1)c1ccc(Cl)c(Cl)c1` and `CC1CN(C(=O)COC(=O)[C@@H](NC(=O)c2ccccc2Cl)C(C)C)CC(C)O1` (some centres undefined) are within 1.5-fold of each other in solubility kinetic: 39.8 µg/mL (≈ 128 µM) for the first, 58.5 µg/mL (≈ 142 µM) for the second.

For `C[C@@H]1NC(=O)/C(=C\c2ccccc2Br)NC1=O`, the solubility kinetic was 13.1 µg/mL (≈ 44.4 µM).
